Measured values reported in patent US20240400577A1, “MODULATORS OF PROTEIN KINASES” (VIBLIOME THERAPEUTICS, LLC, priority 2021, published 2024).

Target: T1, RIPK2 (Homo sapiens, UniProt O43353)
T1 construct: purchased Nanosyn
Assay: Kinase panel enzymatic inhibition assay (Nanosyn)
Format: biochemical
Conditions: ATP at Km; 30-minute pre-incubation; read-out: kinase inhibition in terms of IC50, RIPK2
Summary of the method: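 Read-out is percent inhibition or IC50, obtained by mobility shift, ADP detection or time-resolved fluorescence detection. Each kinase was run with ATP at its Km, and compound at 5 μM was pre-incubated for 30 minutes.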

T1 sequence (O43353 whole entry): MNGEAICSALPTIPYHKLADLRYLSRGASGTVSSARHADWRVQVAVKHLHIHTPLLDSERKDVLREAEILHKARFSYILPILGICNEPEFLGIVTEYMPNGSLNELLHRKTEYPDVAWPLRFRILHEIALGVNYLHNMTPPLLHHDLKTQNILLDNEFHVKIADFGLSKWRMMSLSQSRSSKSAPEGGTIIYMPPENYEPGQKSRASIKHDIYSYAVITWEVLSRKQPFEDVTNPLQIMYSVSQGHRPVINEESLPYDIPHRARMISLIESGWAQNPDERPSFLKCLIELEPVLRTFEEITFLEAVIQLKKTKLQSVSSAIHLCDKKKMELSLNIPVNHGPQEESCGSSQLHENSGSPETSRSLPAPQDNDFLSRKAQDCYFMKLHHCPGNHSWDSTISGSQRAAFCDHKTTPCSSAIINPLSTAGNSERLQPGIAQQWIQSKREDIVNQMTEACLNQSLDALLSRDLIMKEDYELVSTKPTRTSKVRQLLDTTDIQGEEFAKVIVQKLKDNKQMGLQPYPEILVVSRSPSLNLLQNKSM

IC50: 500 to 1000 nM
Structure (SMILES): COc1cc2nccc(Oc3ccc(NC(=O)c4cc(S(C)(=O)=O)n(-c5ccc(F)cc5)n4)c(F)c3)c2cc1OC [Ex71, N-(4-((6,7-dimethoxyquinolin-4-yl)oxy)-2-fluorophenyl)-1-(4-fluorophenyl)-5-(methylsulfonyl)-1H-pyrazole-3-carboxamide]
